From patent publication US20210206763A1, “Anti-Proliferative Agents” (FEMTOGENIX LIMITED, priority 2015, published 2021)

Experiments:
[1] = tested on: fluorescently labelled DNA duplex 5′-AAAAAAAGAAATTTAAA-3′; assay: FRET DNA melting of fluorescently labelled duplex; type: binding; conditions: fragments of 41, FIG. 12B
Description: FRET DNA melting studies were undertaken on a fluorescently labelled duplex DNA sequence reacted with 41 and fragmented forms of the molecule (i.e, using intermediates 106, […] and 148). The sequence (FIG. 10) was designed to provide additional evidence that 41 can effectively stabilise a particular DNA sequence derived through the Footprinting studies (i.e., XGXWWWW where X represents any base, G represents guanine and W indicates adenine or thymine). […] The labels were fluorescein (F) and dabcyl (Q).
Oligonucleotides were obtained from ATDbio (Southampton, UK) in lyophilised form. They were labelled with a fluorophore molecule (F=fluorescein) at the 5′-end and a quencher molecule (Q=dabcyl) at the 3′-end of the complementary strand. Each oligonucleotide was dissolved in distilled H2O to form stock solutions of 100 μM. Working solutions of 5 μM were prepared by diluting the stock solution with distilled H2O.
The following buffers were used: 250 mM phosphate buffer pH 7.4 (consisting of sodium dihydrogen phosphate and sodium phosphate diluted in distilled H2O) and 5 M sodium chloride buffer. All buffers and distilled H2O were filtered through a 0.2 VIM filter prior to use.
For the FRET experiments stock solutions of 41, 106, 107 and 148 were prepared by dissolving the compounds in DMSO to give a concentration of 10 mM. From this stock solution, working solutions of the desired concentration were prepared by diluting the stock solution with distilled H2O.
The reaction mixture was comprised of 4 μL of 250 mM phosphate buffer (final concentration of 50 mM), 4 μL flourophor and 4 μL quencher molecule of the appropriate oligonucleotide for a final concentration of 0.2 μM, 4 μL 5 M sodium chloride (final concentration of 1 M NaCl), and 4 μL of distilled H2O. […] This mixture was analysed without prior annealing.
Fluorescence melting profiles were measured using a Roche LightCycler using a total reaction volume of 20 μL. […] Annealing steps and melting steps were all recorded and changes in fluorescence were measured at 520 nm. […]

[2] = in vivo; cited from earlier work
[3] = tested on: AP-1 Transcription Factor duplex DNA sequence; assay: FRET DNA melting assay with transcription factor duplex DNA; type: binding; conditions: 1 μM ligand concentration; 24 hours incubation
Protocol: (§1) Oligonucleotide sequences used for the FRET assays were purchased from Eurogentec, Southampton, UK: TAMRA (6-carboxytetramethylrhodamine) and FAM (6-carboxyfluorescein) are acceptor and donor fluorophores, respectively. From 20 μM stock solutions, 400 nM solutions in FRET buffer (optimized as 50 mM potassium, 50 mM cacodylate, pH 7.4) were prepared prior to use. The oligonucleotides were annealed through heating the samples to 90° C. for 10 mins followed by cooling to room temperature and storing at this temperature for 5 h. Dilutions from the initial 5 mM DMSO stock solution were performed using FRET buffer. Annealed DNA (50 μL) and sample solution (50 μL) were added to each well of a 96-well plate (MJ Research, Waltham, Mass.), and processed in a DNA Engine Opticon (MJ Research). Fluorescence readings were taken at intervals of 0.5° C. over the range 30-100° C., with a constant temperature maintained for 30 seconds prior to each reading. Incident radiation of 450-495 nm was used, with detection at 515-545 nm. The raw data were imported into the program Origin (Version 7.0, OringinLab Corp.), and the graphs were smoothed using a 10-point running average, and then normalized. Determination of melting temperatures was based on values at the maxima of the first derivative of the smoothed melting curves using a script. The difference between the melting temperature of each sample and that of the blank (ΔTm) was used for comparative purposes.

[4] = tested on: NFκB Transcription Factor duplex DNA sequence; assay: as above; type: binding; conditions: 1 μM ligand concentration; 24 hours incubation
Protocol: as §1

[5] = tested on: HeLa (Cervical cancer cell line); assay: MTT cytotoxicity assay of C8-linked PDD monomers; type: cell-based; conditions: Homo sapiens, 72 hours exposure
Protocol: (§2) MDA MB231 (triple negative human breast cancer) was obtained from the American Type Culture Collection. The cell-line was maintained in monolayer culture in 75 cm^2 flasks (TPP, Switzerland) under a humidified 5% CO2 atmosphere at 37° C. The MDA MB231 cell line was maintained in high glucose DMEM (4.5 g/l; Invitrogen), foetal bovine serum (10%, Biosera UK), non-essential amino acids (ix; Invitrogen), L-glutamine (2 mM; Invitrogen) and Penicillin-Streptomycin (1% v/v, Invitrogen). The HeLa cell line was maintained in Dulbecco's Modified Eagles Media (DMEM; Invitrogen) supplemented with foetal bovine serum (10% v/v; Invitrogen), L-glutamine (2 mM; Invitrogen), non-essential amino acids (lx; Invitrogen) and Penicillin-Streptomycin (1% v/v, Invitrogen). For passaging, cells were washed with PBS (GIBCO 14040, Invitrogen, UK), incubated with trypsine (GIBCO 25300, Invitrogen, UK), and re-seeded into fresh medium. For seeding, cells were counted using a Neubauer haemocytometer (Assistant, Germany) by microscopy (Nikon, USA) on a non-adherent suspension of cells that were washed in PBS, trypsinised, centrifuged at 8° C. at 8000 rpm for 5 min and re-suspended in fresh medium.
(§3) The cells were grown in normal cell culture conditions at 37° C. under a 5% CO2 humidified atmosphere using appropriate medium. The cell count was adjusted to 10^5 cells/ml and 5,000-20,000 cells were added per well depending on the cell line. The cells were incubated for 24 hours and 1 μl of the appropriate inhibitor concentrations were added to the wells in triplicates. After 72 h of continuous exposure to each compound, the cytotoxicity was determined using the 3-(4,5-Dimethylthiazol-2-yl)-2,5-diphenyltetrazolium bromide (MTT) (Lancaster Synthesis Ltd, UK) colorimetric assay.^[34 Absorbance was quantified by spectrophotometry at λ=570 nm (Envision Plate Reader, PerkinElmer, USA). IC50 values were calculated by a dose-response analysis using the GraphPad Prism® software.

[6] = tested on: MDA MB 231 (Triple negative breast cancer cell line); assay: MTT cytotoxicity assay of C8-linked PDD monomers; type: cell-based; conditions: Homo sapiens, 72 hours exposure
Protocol: as §2, §3

[7] = tested on: NFκB transcription factor binding sequence (duplex oligonucleotide); assay: DNA adduct formation by HPLC; conditions: 4:1 molar ratio ligand:oligonucleotide, room temperature
Protocol: Interaction of C8-linked PDD monomers with duplex transcription factor consensus sequence was studied with an HPLC assay utilizing a X-bridge MS C18 2.5 μM OST column (2.3×50 mm) and a gradient of 40% acetonitrile/water and 100 mM TEAB ([…])/water as mobile phase with a flow rate of 0.5 mL/min and UV detection at 254 nm. A 4:1 molar ratio of ligand:oligonucleotide was used, with each single-stranded oligonucleotide dissolved in 1 M ammonium acetate to form stock solutions of 1 mM. The oligonucleotides were initially annealed by heating their 1 mM solutions to 70° C. for 10 mins followed by gradual cooling over 8 hours and storage overnight at −20° C. Working solutions of oligonucleotides of 25 μM were then prepared by diluting the annealed stock solutions with 100 mM ammonium acetate. The ligands were dissolved in DMSO to form a stock solution of 10 mM which was stored at −20° C. for no longer than four months. Working solutions of the drug of 100 μM were prepared by diluting the stock solution with 100 mM ammonium acetate. The working solutions of the ligands were added to the working solution the oligonucleotides at RT, and the mixture incubated for different time intervals at room temperature.

Structure (SMILES) | DNA stabilisation (FRET melting) [1] | adverse effects in Phase I clinical evaluation [2] | ΔTm AP-1 (1st transition) [3] | ΔTm AP-1 (2ND transition) [3] | ΔTm NFκB (1st transition) [4] | ΔTm NFκB (2ND transition) [4] | IC50 [5] | IC50 [6] | DNA adduct formation (HPLC chromatogram) [7]
Cn1cc(N)cc1C(=O)Nc1ccc(-c2cc(C(=O)Nc3ccc(N)cc3)n(C)c2)cc1 [Compound 148, 4-Amino-N-(4-(5-((4-aminophenyl)carbamoyl)-1-methyl-1H-pyrrol-3-yl)phenyl)-1-methyl-1H-pyrrole-2-carboxamide] | little DNA stabilisation |  |  |  |  |  |  |  | 
C=C1C[C@H]2C=Nc3cc(OCCCOc4cc5c(cc4OC)C(=O)N4CC(=C)C[C@H]4C=N5)c(OC)cc3C(=O)N2C1 [SJG-136] |  | lower-limb edema and fatigue |  |  |  |  |  |  | 
COC(=O)c1cc2cc(NC(=O)c3nc(NC(=O)CCCOc4cc5c(cc4OC)C(=O)N4CCCC[C@H]4C=N5)cn3C)ccc2s1 [Compound 17, Methyl (S)-5-(4-(4-((2-methoxy-12-oxo-6a,7,8,9,10,12-hexa-hydrobenzo[e]pyrido[1,2-a][1,4]diazepin-3-yl)oxy)butanamido)-1-methyl-1H-imidazole-2-carboxamido)benzo[b]thiophene-2-carboxylate] |  |  | 13 °C | 18 °C | 11 °C | 26 °C | 1.2 ± 0.8 nM | 21 ± 1.8 nM | DNA adduct formation
COC(=O)c1cc(-c2ccc(NC(=O)c3cc(NC(=O)CCCOc4cc5c(cc4OC)C(=O)N4CCCC[C@H]4C=N5)cn3C)cc2)cn1C [Compound 24, Methyl (S)-4-(4-(4-(4-((2-methoxy-12-oxo-6a,7,8,9,10,12-hexahydrobenzo[e]pyrido[1,2-a][1,4]diazepin-3-yl)oxy)butanamido)-1-methyl-1H-pyrrole-2-carboxamido)phenyl)-1-methyl-1H-pyrrole-2-carboxylate] |  |  | 9 °C | 15 °C | 10 °C | 14 °C | 1 ± 0.12 nM | 0.8 ± 0.66 nM | DNA adduct formation
COC(=O)c1cc2cc(NC(=O)c3cc(NC(=O)CCCOc4cc5c(cc4OC)C(=O)N4CCCC[C@H]4C=N5)cn3C)ccc2s1 [Compound 13, Methyl (S)-5-(4-(4-((2-methoxy-12-oxo-6a,7,8,9,10,12-hexa-hydrobenzo[e]pyrido[1,2-a][1,4]diazepin-3-yl)oxy)butanamido)-1-methyl-1H-pyrrole-2-carboxamido)benzo[b]thiophene-2-carboxylate] |  |  | 11 °C | 19 °C | 12 °C | 23 °C | 0.6 ± 0.4 nM | 64 ± 9.6 nM | DNA adduct formation
COC(=O)c1cc(-c2ccc(NC(=O)c3nc(NC(=O)CCCOc4cc5c(cc4OC)C(=O)N4CCCC[C@H]4C=N5)cn3C)cc2)cn1C [Compound 20, Methyl (S)-4-(4-(4-(4-((2-methoxy-12-oxo-6a,7,8,9,10,12-hexahydrobenzo[e]pyrido[1,2-a][1,4]diazepin-3-yl)oxy)butanamido)-1-methyl-1H-imidazole-2-carboxamido)phenyl)-1-methyl-1H-pyrrole-2-carboxylate] |  |  | 8 °C | 13 °C | 9 °C | 12 °C | 0.14 ± 0.09 nM | 0.3 ± 0.22 nM | DNA adduct formation
COc1cc2c(cc1O)N=C[C@@H]1CCCCN1C2=O [Compound 106, (S)-3-Hydroxy-2-methoxy-7,8,9,10-tetrahydrobenzo[e]pyrido[1,2-a][1,4]diazepin-12(6aH)-one] | little DNA stabilisation |  |  |  |  |  |  |  | 
COc1cc2c(cc1OCCCC(=O)O)N=C[C@@H]1CCCCN1C2=O [Compound 107, (S)-4-((2-Methoxy-12-oxo-6a,7,8,9,10,12-hexahydrobenzo[e]pyrido[1,2-a][1,4]diazepin-3-yl)oxy)butanoic acid] | little DNA stabilisation |  |  |  |  |  |  |  | 
